ChEMBL document CHEMBL3217636, “Design, synthesis and biological evaluation of novel benzothiazole and triazole analogs as falcipain inhibitors” (Medchemcomm, 2011)
Activity calls are given as the source filed them. The calls are words filed in the database; no cut-off is given here.

Experiments:
[1] = Inhibition of Plasmodium falciparum recombinant falcipain 2
Procathepsin L = Procathepsin L (Homo sapiens, UniProt P07711); experiment: Inhibition of human cathepsin L1
Cathepsin K = biological target: T1, Cathepsin K (Homo sapiens, UniProt P43235); experiment: Inhibition of human cathepsin K
T1 sequence (P43235 whole entry): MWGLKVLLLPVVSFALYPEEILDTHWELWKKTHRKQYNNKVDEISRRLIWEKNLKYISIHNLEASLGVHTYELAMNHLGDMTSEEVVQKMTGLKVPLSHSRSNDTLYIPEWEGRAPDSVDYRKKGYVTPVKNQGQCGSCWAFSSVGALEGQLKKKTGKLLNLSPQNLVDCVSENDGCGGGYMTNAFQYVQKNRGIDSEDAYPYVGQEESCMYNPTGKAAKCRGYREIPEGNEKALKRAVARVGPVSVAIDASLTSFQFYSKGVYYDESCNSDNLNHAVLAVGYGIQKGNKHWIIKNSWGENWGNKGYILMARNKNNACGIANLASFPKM

[2] = Inhibition of Plasmodium falciparum recombinant falcipain 3
Cathepsin B = Cathepsin B (Homo sapiens, UniProt P07858); experiment: Inhibition of human cathepsin B
Plasmodium falciparum [3] = experiment: Antimalarial activity against Plasmodium falciparum W2; format: functional, organism-based
Plasmodium falciparum [4] = experiment: Antimalarial activity against Plasmodium falciparum W2 at 10 uM; format: functional, organism-based

Sequence of Procathepsin L (P07711 whole entry): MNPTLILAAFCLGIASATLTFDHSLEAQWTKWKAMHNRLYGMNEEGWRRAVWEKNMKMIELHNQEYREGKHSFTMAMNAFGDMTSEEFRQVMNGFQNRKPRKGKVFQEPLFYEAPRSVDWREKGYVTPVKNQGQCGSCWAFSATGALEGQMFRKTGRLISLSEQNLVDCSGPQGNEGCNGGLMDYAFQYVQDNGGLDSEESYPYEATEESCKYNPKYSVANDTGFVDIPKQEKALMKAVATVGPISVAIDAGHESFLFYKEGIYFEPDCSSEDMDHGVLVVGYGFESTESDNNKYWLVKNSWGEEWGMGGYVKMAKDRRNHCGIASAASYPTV

SMILES	IC50 [1] [µM]	also measured
CCOC(=O)CSc1nc2ccc(NS(=O)(=O)c3ccc(F)cc3)cc2s1	> 50	
Cc1cc(NC(=O)Cn2cc(-c3cccc(O)c3)nn2)no1	> 50	
Cc1ccc(NC(=O)CSc2nc3ccc(N)cc3s2)cc1	> 50	
Cc1cc(NC(=O)Cn2cc(-c3cccnc3)nn2)no1	> 50	
Cc1cc(NC(=O)Cn2cc(CCCCl)nn2)no1	> 50	
Cc1cc(NC(=O)Cn2cc(-c3ccc(C=O)cc3)nn2)no1	> 50	
O=C(CSc1nc2ccc(NS(=O)(=O)c3ccc(OC(F)(F)F)cc3)cc2s1)c1ccc2ccccc2c1	> 50	
CCOC(=O)CSc1nc2ccc(NS(=O)(=O)c3ccccc3[N+](=O)[O-])cc2s1	> 50	
CCOC(=O)CSc1nc2ccc(NS(=O)(=O)c3ccc4ccncc4c3)cc2s1	31.3	
Cc1ccc(NC(=O)CSc2nc3ccc(NC(=O)[C@H](N)C(C)C)cc3s2)cc1	> 50	
CCOC(=O)CSc1nc2ccc(N)cc2s1	> 50	
COc1ccc2cc(-c3cn(CC(=O)Nc4cc(C)on4)nn3)ccc2c1	38.4	
Nc1ccc2nc(SCC(=O)c3ccc4ccccc4c3)sc2c1	> 50	
O=C(CSc1nc2ccc(NS(=O)(=O)c3ccc4ccncc4c3)cc2s1)c1ccc2ccccc2c1	> 50	IC50 (Plasmodium falciparum [3]): 2.08 µM
C[C@@H]1CC[C@H]2[C@@H](C)C(=O)O[C@@H]3O[C@@]4(C)CC[C@@H]1[C@]32OO4 [ARTEMISININ]		IC50 (Plasmodium falciparum [3]): 0.012 µM
CCCCCc1ccc(-c2cn(CC(=O)Nc3cc(C)on3)nn2)cc1	39	
Cc1cc(NC(=O)Cn2cc(-c3ccc(F)cc3)nn2)no1	> 50	
Cc1cccc(-c2cn(CC(=O)Nc3cc(C)on3)nn2)c1	> 50	
Cc1cc(NC(=O)Cn2cc(-c3cccc4ccccc34)nn2)no1	> 50	
CCOC(=O)CSc1nc2ccc(NS(=O)(=O)CC(F)(F)F)cc2s1	> 50	
Cc1cc(NC(=O)Cn2cc(-c3ccccc3)nn2)no1	> 50	
O=C(CSc1nc2ccc(NS(=O)(=O)c3ccc(OC(F)(F)F)cc3)cc2s1)c1ccccc1	35.7	
O=C(CSc1nc2ccc(NS(=O)(=O)c3ccc(F)cc3)cc2s1)c1ccc2ccccc2c1	43.2	
Nc1ccc2nc(SCC(=O)c3ccccc3)sc2c1	> 50	
Cc1cc(NC(=O)Cn2cc(COc3ccccc3)nn2)no1	> 50	
Cc1ccc(NC(=O)CSc2nc3ccc(NC(=O)[C@H](N)c4ccccc4)cc3s2)cc1	> 50	

Now from value to compound, other results behind:

IC50 [1] [µM]	SMILES	also measured
24.3	Cc1ccc(NC(=O)CSc2nc3ccc(NS(=O)(=O)CC(F)(F)F)cc3s2)cc1	
16.9	Cc1ccc(NC(=O)CSc2nc3ccc(NS(=O)(=O)c4ccc(OC(F)(F)F)cc4)cc3s2)cc1	
16.5	Cc1ccc(NC(=O)CSc2nc3ccc(NS(=O)(=O)c4ccc(F)cc4)cc3s2)cc1	
12.2	CC(C)[C@@H](N)C(=O)Nc1ccc2nc(SCC(=O)c3ccc4ccccc4c3)sc2c1	IC50 (Procathepsin L): 5.87 µM; IC50 (Cathepsin K): 14.5 µM; IC50 [2]: 13.8 µM; IC50 (Cathepsin B): > 50 µM; IC50 (Plasmodium falciparum [3]): 4.65 µM
14	Cc1ccc(NC(=O)CSc2nc3ccc(NS(=O)(=O)c4ccc5ccncc5c4)cc3s2)cc1	
10.3	COc1ccc(C(=O)Nc2ccc3nc(SCC(=O)c4ccccc4)sc3c2)cc1	IC50 (Procathepsin L): 31.6 µM; IC50 (Cathepsin K): 6.12 µM; IC50 [2]: > 50 µM; IC50 (Cathepsin B): 17.7 µM; IC50 (Plasmodium falciparum [3]): > 10 µM
12.8	N[C@@H](C(=O)Nc1ccc2nc(SCC(=O)c3ccc4ccccc4c3)sc2c1)c1ccccc1	Activity (Plasmodium falciparum [4]): inactive; IC50 (Procathepsin L): 4.39 µM; IC50 (Cathepsin K): 5.62 µM; IC50 [2]: 14.9 µM; IC50 (Cathepsin B): > 50 µM
13.2	CC(=O)Nc1ccc2nc(SCC(=O)c3ccc4ccccc4c3)sc2c1	
19.9	Cc1cc(NC(=O)Cn2cc(-c3ccc(Oc4ccccc4)cc3)nn2)no1	IC50 [2]: 39.7 µM
2.2	Cc1cc(NC(=O)Cn2nnc(-c3ccc(NC(=O)c4ccc(F)cc4)cc3)n2)no1	IC50 (Procathepsin L): 24.4 µM; IC50 (Cathepsin K): 3.83 µM; IC50 [2]: 4.95 µM; IC50 (Cathepsin B): 37.1 µM; IC50 (Plasmodium falciparum [3]): > 10 µM
13.9	CC(=O)Nc1ccc2nc(SCC(=O)Nc3ccc(C)cc3)sc2c1	
0.03	CC(C)C[C@H](NC(=O)[C@H]1O[C@@H]1C(=O)O)C(=O)NCCCCN=C(N)N [E-64]	IC50 (Procathepsin L): 0.016 µM; IC50 (Cathepsin K): 0.004 µM; IC50 (Cathepsin B): 0.005 µM
11.1	O=C(CSc1nc2ccc(NS(=O)(=O)c3ccccc3[N+](=O)[O-])cc2s1)c1ccccc1	
